Data from PubChem BioAssay (NCI).
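48-hour exposure; five concentrations; linearly interpolated endpoints. GI50 = concentration required for 50% inhibition of growth. TGI denotes the concentration required for complete inhibition of growth.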

Key:
Assay in all cases: DTP human tumour cell line panel, 48 h
HT29 colon = system: HT29 colon
HOP-62 NSCLC = system: HOP-62 NSCLC
UACC-257 melanoma = system: UACC-257 melanoma
786-0 renal = system: 786-0 renal
RXF 393 renal = system: RXF 393 renal
NCI/ADR-RES ovarian = system: NCI/ADR-RES ovarian
M14 melanoma = system: M14 melanoma
SK-OV-3 ovarian = system: SK-OV-3 ovarian
NCI-H226 lung = system: NCI-H226 lung
NCI-H522 lung = system: NCI-H522 lung
OVCAR-8 ovarian = system: OVCAR-8 ovarian
HS 578T breast = system: HS 578T breast
OVCAR-4 ovarian = system: OVCAR-4 ovarian
SK-MEL-2 melanoma = system: SK-MEL-2 melanoma
IGROV1 ovarian = system: IGROV1 ovarian
A498 renal = system: A498 renal
UACC-62 melanoma = system: UACC-62 melanoma
SW-620 colon = system: SW-620 colon
LOX IMVI melanoma = system: LOX IMVI melanoma
CAKI-1 renal = system: CAKI-1 renal
MDA-MB-435 = system: MDA-MB-435
BT-549 breast = system: BT-549 breast
SF-268 CNS = system: SF-268 CNS
SR leukemia = system: SR leukemia
MALME-3M melanoma = system: MALME-3M melanoma
SK-MEL-28 melanoma = system: SK-MEL-28 melanoma
SK-MEL-5 melanoma = system: SK-MEL-5 melanoma
T-47D breast = system: T-47D breast
KM12 colon = system: KM12 colon
COLO 205 colon = system: COLO 205 colon
HCT-116 colon = system: HCT-116 colon
CCRF-CEM leukemia = system: CCRF-CEM leukemia
OVCAR-3 ovarian = system: OVCAR-3 ovarian
SF-295 CNS = system: SF-295 CNS
SN12C renal = system: SN12C renal
RPMI-8226 leukemia = system: RPMI-8226 leukemia
UO-31 renal = system: UO-31 renal
MOLT-4 leukemia = system: MOLT-4 leukemia
K-562 leukemia = system: K-562 leukemia
OVCAR-5 ovarian = system: OVCAR-5 ovarian
HL-60(TB) leukemia = system: HL-60(TB) leukemia
A549 NSCLC = system: A549 NSCLC
PC-3 prostate = system: PC-3 prostate
HOP-92 NSCLC = system: HOP-92 NSCLC
SF-539 CNS = system: SF-539 CNS
HCC-2998 colon = system: HCC-2998 colon
DU-145 prostate = system: DU-145 prostate
TK-10 renal = system: TK-10 renal
U251 CNS = system: U251 CNS
MCF7 breast = system: MCF7 breast
HCT-15 colon = system: HCT-15 colon
SNB-19 CNS = system: SNB-19 CNS
SNB-75 CNS = system: SNB-75 CNS
MDA-MB-231 breast = system: MDA-MB-231 breast
ACHN renal = system: ACHN renal
NCI-H460 lung = system: NCI-H460 lung
NCI-H23 lung = system: NCI-H23 lung

## C[C@@H](Oc1cc(-c2cnn(C3CC4(CNC4)C3)c2)cnc1N)c1c(Cl)ccc(F)c1Cl
HT29 colon
  GI50: 1.7 µM
  TGI: 5.98 µM
HOP-62 NSCLC
  GI50: 2.3 µM
  TGI: 13.4 µM
UACC-257 melanoma
  GI50: 1.79 µM
  TGI: 4.33 µM
786-0 renal
  GI50: 5.6 µM
  TGI: 19.1 µM
RXF 393 renal
  GI50: 3.39 µM
  TGI: 12.7 µM
NCI/ADR-RES ovarian
  GI50: 14.9 µM
  TGI: 31 µM
M14 melanoma
  GI50: 1.57 µM
  TGI: 3.37 µM
SK-OV-3 ovarian
  GI50: 7.98 µM
  TGI: 21.1 µM
NCI-H226 lung
  GI50: 6.81 µM
  TGI: 24.3 µM
NCI-H522 lung
  GI50: 10.2 µM
  TGI: 25.4 µM
OVCAR-8 ovarian
  GI50: 10.4 µM
  TGI: 24.3 µM
HS 578T breast
  GI50: 3.87 µM
  TGI: 27.1 µM
OVCAR-4 ovarian
  GI50: 9.15 µM
  TGI: 22.7 µM
SK-MEL-2 melanoma
  GI50: 3.58 µM
  TGI: 15.1 µM
IGROV1 ovarian
  GI50: 6.64 µM
  TGI: 21.5 µM
A498 renal
  GI50: 1.1 µM
  TGI: 4.81 µM
UACC-62 melanoma
  GI50: 3.64 µM
  TGI: 13.8 µM
SW-620 colon
  GI50: 1.31 µM
  TGI: 11.9 µM
LOX IMVI melanoma
  GI50: 1.96 µM
  TGI: 6.79 µM
CAKI-1 renal
  GI50: 7.58 µM
  TGI: 21.4 µM
MDA-MB-435
  GI50: 1.16 µM
  TGI: 14.2 µM
BT-549 breast
  GI50: 6.49 µM
  TGI: 19.4 µM
SF-268 CNS
  GI50: 4.19 µM
  TGI: 18.2 µM
SR leukemia
  GI50: 0.0769 µM
  TGI: 2.05 µM
MALME-3M melanoma
  GI50: 1.53 µM
  TGI: 3.89 µM
SK-MEL-28 melanoma
  GI50: 1.74 µM
  TGI: 4 µM
SK-MEL-5 melanoma
  GI50: 3.92 µM
  TGI: 12.2 µM
T-47D breast
  GI50: 3.89 µM
  TGI: 16.7 µM
KM12 colon
  GI50: 0.111 µM
  TGI: 7.42 µM
COLO 205 colon
  GI50: 1.38 µM
  TGI: 3.3 µM
HCT-116 colon
  GI50: 2.09 µM
  TGI: 8.87 µM
CCRF-CEM leukemia
  GI50: 0.681 µM
  TGI: 6.97 µM
OVCAR-3 ovarian
  GI50: 9.94 µM
  TGI: 22.1 µM
SF-295 CNS
  GI50: 1.41 µM
  TGI: 13.6 µM
SN12C renal
  GI50: 2.59 µM
  TGI: 13.8 µM
RPMI-8226 leukemia
  GI50: 3.22 µM
  TGI: 13 µM
UO-31 renal
  GI50: 4.96 µM
  TGI: 18.3 µM
MOLT-4 leukemia
  GI50: 1.03 µM
  TGI: 7.27 µM
K-562 leukemia
  GI50: 0.349 µM
  TGI: 5.43 µM
OVCAR-5 ovarian
  GI50: 1.82 µM
  TGI: 14.2 µM
HL-60(TB) leukemia
  GI50: 1.59 µM
  TGI: 6.76 µM
A549 NSCLC
  GI50: 3.09 µM
  TGI: 12.6 µM
PC-3 prostate
  GI50: 2.64 µM
  TGI: 15.6 µM
HOP-92 NSCLC
  GI50: 0.848 µM
  TGI: 5.12 µM
SF-539 CNS
  GI50: 2.51 µM
  TGI: 7.89 µM
HCC-2998 colon
  GI50: 5.42 µM
  TGI: 19.7 µM
DU-145 prostate
  GI50: 5.45 µM
  TGI: 18.1 µM
TK-10 renal
  GI50: 10.3 µM
  TGI: 22.5 µM
U251 CNS
  GI50: 5.01 µM
  TGI: 19.1 µM
MCF7 breast
  GI50: 0.532 µM
  TGI: 5 µM
HCT-15 colon
  GI50: 4.04 µM
  TGI: 15.1 µM
SNB-19 CNS
  GI50: 9.7 µM
  TGI: 24.3 µM
SNB-75 CNS
  GI50: 2.44 µM
  TGI: 9.29 µM
MDA-MB-231 breast
  GI50: 2.23 µM
  TGI: 14.4 µM
ACHN renal
  GI50: 4.89 µM
  TGI: 18.3 µM
NCI-H460 lung
  GI50: 1.98 µM
  TGI: 13.7 µM
NCI-H23 lung
  GI50: 1.97 µM
  TGI: 16 µM
